Among the data in ChEMBL document CHEMBL1137765, “Design and synthesis of novel chloramphenicol amine derivatives as potent aminopeptidase N (APN/CD13) inhibitors” (Bioorg Med Chem, 2009) are IC50 values, retold here.

One assay deals with T1, Aminopeptidase N (Sus scrofa, UniProt P15145).
T1 sequence (P15145 whole entry): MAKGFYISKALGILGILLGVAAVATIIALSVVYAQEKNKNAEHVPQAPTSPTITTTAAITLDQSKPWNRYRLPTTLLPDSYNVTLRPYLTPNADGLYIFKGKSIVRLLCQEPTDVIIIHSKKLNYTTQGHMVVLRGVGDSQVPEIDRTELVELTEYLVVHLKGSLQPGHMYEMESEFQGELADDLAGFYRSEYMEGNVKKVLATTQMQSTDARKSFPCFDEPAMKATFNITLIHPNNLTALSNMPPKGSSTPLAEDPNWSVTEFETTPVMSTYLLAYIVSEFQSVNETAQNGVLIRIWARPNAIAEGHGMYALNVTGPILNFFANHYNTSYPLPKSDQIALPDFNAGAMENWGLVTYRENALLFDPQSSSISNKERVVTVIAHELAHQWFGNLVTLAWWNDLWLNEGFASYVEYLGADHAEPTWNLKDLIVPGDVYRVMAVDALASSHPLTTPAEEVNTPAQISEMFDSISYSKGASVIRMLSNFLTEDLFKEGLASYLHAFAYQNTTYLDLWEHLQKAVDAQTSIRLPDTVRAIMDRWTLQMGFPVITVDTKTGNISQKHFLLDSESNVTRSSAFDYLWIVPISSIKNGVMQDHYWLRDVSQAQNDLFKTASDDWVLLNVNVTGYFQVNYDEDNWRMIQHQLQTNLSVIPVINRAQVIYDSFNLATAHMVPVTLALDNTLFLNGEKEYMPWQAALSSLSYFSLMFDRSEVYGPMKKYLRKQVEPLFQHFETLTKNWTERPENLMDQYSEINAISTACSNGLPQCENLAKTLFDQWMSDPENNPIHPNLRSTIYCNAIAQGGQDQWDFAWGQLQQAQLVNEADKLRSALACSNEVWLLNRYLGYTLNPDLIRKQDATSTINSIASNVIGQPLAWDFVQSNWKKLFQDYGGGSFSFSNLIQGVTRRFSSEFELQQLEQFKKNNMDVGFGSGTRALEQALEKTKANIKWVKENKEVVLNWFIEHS
Put plainly: Inhibition of pig kidney microsomal Aminopeptidase N.
Settings: not given
The term IC50 denotes the concentration that inhibits the measured activity by half. Compound `CCCCCNC(=O)[C@H](N)[C@@H](O)c1ccc([N+](=O)[O-])cc1` gave an IC50 of 522 µM.

Compound `COc1ccc(CNC(=O)[C@H](N)[C@@H](O)c2ccc([N+](=O)[O-])cc2)cc1` came in with an IC50 of 145 µM.

For `N[C@@H](C(=O)N[C@@H](Cc1ccccc1)C(=O)N[C@@H](Cc1ccccc1)C(=O)O)[C@@H](O)c1ccc([N+](=O)[O-])cc1`, the IC50 came to 7.1 µM.

`CCCCNC(=O)[C@H](N)[C@@H](O)c1ccc([N+](=O)[O-])cc1` displayed an IC50 of 233 µM.

As for `N[C@@H](C(=O)NC1CCCCC1)[C@@H](O)c1ccc([N+](=O)[O-])cc1`, half-maximal inhibition (IC50) was put at 251 µM.

For the compound `CC(C)[C@H](NC(=O)[C@H](N)[C@@H](O)c1ccc([N+](=O)[O-])cc1)C(=O)O`, the IC50 is 160 µM.

On to `CC(C)C[C@H](NC(=O)[C@H](N)[C@@H](O)c1ccc([N+](=O)[O-])cc1)C(=O)N[C@@H](Cc1ccccc1)C(=O)O`, for which the IC50 worked out at 34.6 µM.

In turn, `N[C@@H](C(=O)NCCc1ccc2c(c1)OCO2)[C@@H](O)c1ccc([N+](=O)[O-])cc1` came in with an IC50 of 90.3 µM.

In turn, `N[C@@H](C(=O)NCc1ccc(F)cc1)[C@@H](O)c1ccc([N+](=O)[O-])cc1` yielded an IC50 of 302 µM.

`N[C@@H](C(=O)N[C@@H](Cc1cc2ccccc2[nH]1)C(=O)O)[C@@H](O)c1ccc([N+](=O)[O-])cc1` gave a half-inhibitory concentration (IC50) of 162 µM.

With `N[C@@H](C(=O)NCCc1ccccc1)[C@@H](O)c1ccc([N+](=O)[O-])cc1`, half-maximal inhibition (IC50) required 106 µM.

The compound `N[C@@H](C(=O)NCCc1ccccc1Cl)[C@@H](O)c1ccc([N+](=O)[O-])cc1` yielded a half-inhibitory concentration (IC50) of 137 µM.

`N[C@@H](C(=O)N[C@@H](Cc1ccccc1)C(=O)NO)[C@@H](O)c1ccc([N+](=O)[O-])cc1` showed a 50% inhibitory concentration (IC50) of 31.3 µM.

For the compound `N[C@@H](C(=O)NCCCCCC(=O)O)[C@@H](O)c1ccc([N+](=O)[O-])cc1`, the IC50 turned out to be 1390 µM.

For `N[C@@H](C(=O)N[C@H](CO)Cc1ccccc1)[C@@H](O)c1ccc([N+](=O)[O-])cc1`, the 50% inhibitory concentration (IC50) amounted to 116 µM.

`N[C@@H](C(=O)NCc1ccccc1)[C@@H](O)c1ccc([N+](=O)[O-])cc1`: half-maximal inhibition (IC50) required 170 µM.

As to `CC(C)NC(=O)[C@H](N)[C@@H](O)c1ccc([N+](=O)[O-])cc1`, the IC50 stood at 251 µM.

`N[C@@H](C(=O)NCCc1ccc(O)cc1)[C@@H](O)c1ccc([N+](=O)[O-])cc1` showed an IC50 of 51.4 µM.

With `CCCNC(=O)[C@H](N)[C@@H](O)c1ccc([N+](=O)[O-])cc1`, the IC50 was determined as 183 µM.

`N[C@@H](C(=O)N[C@@H](Cc1ccccc1)C(=O)O)[C@@H](O)c1ccc([N+](=O)[O-])cc1`: 60.4 µM corresponded to half-maximal inhibition (IC50).

Consider `N[C@@H](C(=O)O)[C@@H](O)c1ccc([N+](=O)[O-])cc1`, for which the IC50 was determined as 140 µM.

The compound `CC(C)C[C@H](NC(=O)[C@H](N)[C@@H](O)c1ccc([N+](=O)[O-])cc1)C(=O)NO` showed an IC50 of 54 µM.

Turning to `CC(C)C[C@H](NC(=O)[C@H](N)[C@@H](O)c1ccc([N+](=O)[O-])cc1)C(=O)O`, 85.6 µM corresponded to half-maximal inhibition (IC50).

Take `N[C@@H](C(=O)NCCCC(=O)O)[C@@H](O)c1ccc([N+](=O)[O-])cc1`: half-maximal inhibition (IC50) required 2890 µM.

The subject of the next assay is HL-60. The experiment in a line: cells. The following applies: Homo sapiens, HL-60, 48 h.
Description: Antiproliferative activity against human HL60 cells after 48 hrs by MTT assay
`CC(C)C[C@H](NC(=O)[C@@H](O)[C@H](N)Cc1ccccc1)C(=O)O` [UBENIMEX] yielded an IC50 of 1650 µM.

As to `N[C@@H](C(=O)N[C@@H](Cc1ccccc1)C(=O)N[C@@H](Cc1ccccc1)C(=O)O)[C@@H](O)c1ccc([N+](=O)[O-])cc1`, the IC50 stood at 2210 µM.

`CC(C)C[C@H](NC(=O)[C@H](N)[C@@H](O)c1ccc([N+](=O)[O-])cc1)C(=O)N[C@@H](Cc1ccccc1)C(=O)O` returned an IC50 of 2020 µM.
